Data published in paper PMC6274563, “Synthesis and In Vitro Anti Leishmania amazonensis Biological Screening of Morita-Baylis-Hillman Adducts Prepared from Eugenol, Thymol and Carvacrol” (Molecules, 2016).
Read-outs that look alike come from different tables or passages of the source.

Assays:
[1] = system: promastigotes of Leishmania amazonensis (IFLA/BR/67/PH8); assay: Antileishmanial activity against promastigotes (MTT viability); type: cell-based
Protocol: The promastigote viabilities were determined by the ability of living cells to reduce the yellow MTT (3-(4,5-dimethylthiazol-2-yl)-2,5-diphenyltetrazolium bromide, a tetrazole) to purple formazan. Promastigote forms of Leishmania amazonensis (IFLA/BR/67/PH8) in the log phase of growth were incubated at 25 °C in 96-well cellular culture plates (TPP, Trasadingen, Switzerland) with 1 × 10^5 cells/well in 100 μL Schneider’s Drosophila medium supplemented with 20% of FBS in the presence or absence of different concentrations of compounds 4–15. The growth of promastigotes forms was evaluated simultaneously in the presence of Glucantime®, as reference drug. After 72 h of incubation, […] of a 5 mg·mL^−1 MTT solution was added. After 4 h of incubation at 25 °C, the formed product formazan was dissolved in […] of sodium dodecyl sulfate (SDS) at 10% for 24 h, and the absorbance was measured by spectrophotometry at a 545 nm wavelength. The percentage viability was calculated from the ratio of OD readings in the wells with compounds versus the wells without compounds × 100. The concentration that inhibited 50% of growth (IC50) was determined by regression analysis using the SPSS 8.0 software for Windows (IBM, New York, NY, USA). All experiments were performed at least three times, and each experiment was performed in triplicate. […]

human red blood cells = assay: Haemolytic assay; type: cell-based; conditions: for SIrb (selectivity index on red blood cell) = HC50/IC50: HC50 on red blood cells / IC50 on L. amazonensis promastigotes
[2] = Leishmania amazonensis, promastigotes of L. amazonensis, 72 h incubation, MTT, average of three independent experiments ± standard error of the mean, read-out: IC50
[3] = haemolysis of human red blood cells

Molecule | IC50 [1, 2] | SIrb (selectivity index on red blood cell) = HC50/IC50 (human red blood cells) | HC50 (human red blood cells; [3]) | other results
C=C(C(=O)Oc1cc(C)ccc1C(C)C)C(O)c1cccc([N+](=O)[O-])c1 (stereo not shown) [Compound 11, 2-Isopropyl-5-methylphenyl 2-(hydroxy(3-nitrophenyl)methyl)acrylate] | 10.6 ± 0.53 µM | – | – | –
C[C@@H]1[C@H](O)[C@@H](C)/C=C/C=C/C=C/C=C/C=C/C=C/C=C/[C@H](O[C@@H]2O[C@H](C)[C@@H](O)[C@H](N)[C@@H]2O)C[C@@H]2O[C@](O)(C[C@@H](O)C[C@@H](O)[C@H](O)CC[C@@H](O)C[C@@H](O)CC(=O)O[C@H]1C)C[C@H](O)[C@H]2C(=O)O [AmphotericinB, amphotericin B] | 0.52 ± 0.03 µM | 22.34 | 11.61 µM | –
Cc1ccc(C(C)C)cc1O [Compound 6, carvacrol] | – | – | – | IC50 ([1]; Leishmania amazonensis, 72 h): 138 ± 6.91 µM
C=C(C(=O)Oc1cc(C)ccc1C(C)C)C(O)c1ccccc1[N+](=O)[O-] (stereo not shown) [Compound 12, 2-Isopropyl-5-methylphenyl 2-(hydroxy(2-nitrophenyl)methyl)acrylate] | 5.91 ± 0.3 µM | – | – | –
C=C(C(=O)Oc1cc(C(C)C)ccc1C)C(O)c1ccc([N+](=O)[O-])cc1 (stereo not shown) [Compound 13, 5-Isopropyl-2-methylphenyl 2-(hydroxy(4-nitrophenyl)methyl)acrylate] | 18.1 ± 0.9 µM | – | – | –
C=CCc1ccc(OC(=O)C(=C)C(O)c2ccccc2[N+](=O)[O-])c(OC)c1 (stereo not shown) [Compound 9, 4-Allyl-2-methoxyphenyl 2-(hydroxy(2-nitrophenyl)methyl)acrylate] | 4.71 ± 0.24 µM | >84.92 | >400 µM | –
C=C(C(=O)Oc1cc(C)ccc1C(C)C)C(O)c1ccc([N+](=O)[O-])cc1 (stereo not shown) [Compound 10, 2-Isopropyl-5-methylphenyl 2-(hydroxy(4-nitrophenyl)methyl)acrylate] | 11.4 ± 0.57 µM | – | – | –
C=CCc1ccc(OC(=O)C(=C)C(O)c2cccc([N+](=O)[O-])c2)c(OC)c1 (stereo not shown) [Compound 8, 4-Allyl-2-methoxyphenyl-2-(hydroxy(3-nitrophenyl)methyl)acrylate] | 10.5 ± 0.52 µM | >38.13 | >400 µM | –
C=C(C(=O)Oc1cc(C(C)C)ccc1C)C(O)c1cccc([N+](=O)[O-])c1 (stereo not shown) [Compound 14, 5-Isopropyl-2-methylphenyl 2-(hydroxy(3-nitrophenyl)methyl)acrylate] | 22.3 ± 1.12 µM | – | – | –
Glucantime^® | – | – | – | IC50 ([1]; promastigotes of L. amazonensis, 72 h incubation, MTT, average of three independent experiments ± standard error of the mean, read-out: IC50): 1630 ± 437 µM; HC50 (human red blood cells): 1175.02 µM
C=CCc1ccc(O)c(OC)c1 [Compound 4, eugenol] | – | >5.18 | >400 µM | IC50 ([1]; Leishmania amazonensis, 72 h): 77.2 ± 1.77 µM
C=C(C(=O)Oc1cc(C(C)C)ccc1C)C(O)c1ccccc1[N+](=O)[O-] (stereo not shown) [Compound 15, 5-Isopropyl-2-methylphenyl 2-(hydroxy(2-nitrophenyl)methyl)acrylate] | 13.6 ± 0.68 µM | – | – | –
C=CCc1ccc(OC(=O)C(=C)C(O)c2ccc([N+](=O)[O-])cc2)c(OC)c1 (stereo not shown) [Compound 7, 4-Allyl-2-methoxyphenyl 2-(hydroxy(4-nitrophenyl)methyl)acrylate] | 8.75 ± 0.44 µM | >45.71 | >400 µM | –
Cc1ccc(C(C)C)c(O)c1 [Compound 5, thymol] | 115 ± 5.77 µM | – | – | –
